Laboratory results reported in US20260315604A1, “OTUB1 Small-Molecule Binders and OTUB1-recruiting Deubiquitinase-targeting Chimeras (DUBTACs)” (ICAHN SCHOOL OF MEDICINE AT MOUNT SINAI, priority 2023, published 2026).

Molecular target: T1, Human OTUB1 wild-type (Homo sapiens, UniProt Q96FW1)
T1 construct: His tag (N); made in house; host or cells: E. coli BL21-CodonPlus (DE3)-RIPIL
Experiment: Covalent modification of OTUB1 (adduct formation), mass spectrometry-based assay (OTUB1 covalent binders; selected CFTR or cGAS based bivalent compounds)
Type: binding
Details: covalent adduct formation with OTUB1 protein
Procedure: OTUB1 covalent binders were tested for their ability to form the covalent adduct with OTUB1 protein using a mass-spectrometry based assay.
Example 389. Assessment of the Covalent Modification of OTUB1 Protein by Selected OTUB1 Covalent Binders Using a Mass Spectrometry-Based Assay (FIG. 1)
OTUB1 protein (10 μM) was incubated with selecting compounds (2500 μM) at RT for 1 h. The adduct was qualified by mass spectrometry-based assays.
Example 398. Assessment of the Covalent Modification of OTUB1 Protein by Selected CFTR Based Bivalent Compounds Using Mass Spectrometry-Based Assay (FIG. 10)
OTUB1 protein (10 μM) was incubated with selecting bivalent compounds (2500 μM) at RT for 1 h. The adduct was qualified by mass spectrometry-based assays.
Human OTUB1 wild-type (NM_017670.3) and C23S mutation genes were optimized based on the codon preference of E. coli, synthesized and cloned into pET15b vector with a N-terminal His tag by Genscript, respectively. The plasmid was transferred to BL21-CodonPlus (DE3)-RIPIL Competent Cell (230280, Agilent Technologies) and the recombinant protein was induced expressed by 0.5 mM IPTG at 16° C. with shaking 200 rpm for 18 h. Induced cells were harvested by centrifugation and resuspended in cold lysis buffer (50 mM Tris-H—Cl pH 7.5, 150 mM NaCl, 25 mM imidazole pH 7.5, 0.01% IGEPAL, 5% Glycerol) in the presence of Pierce Protease Inhibitor tablets (PIA32963, Fisher Scientific) and 2 mM TCEP pH 7.5.
The cells were lysed by sonication, clarified by centrifugation, and the filtered supernatant loaded onto a 5 ml HisTrap HP affinity column (17524802, Cytiva) in AKTA system. The His-recombinant protein bound to column was washed using buffer A (50 mM Tris-HCl pH 7.5, 150 mM NaCl, 25 mM imidazole pH 7.5, 0.01% IGEPAL, 5% Glycerol) and eluted with buffer B (50 mM Tris-HCl pH 7.5, 150 mM NaCl, 250 mM imidazole pH 7.5, 0.01% IGEPAL, 5% Glycerol). The eluted fractions containing OTUB1 protein were concentrated and subjected to size exclusion chromatography using a 320 mL HiLoad 26/600 Superdex 200 pg column (28989336, Cytiva) under the buffer condition ([…] Tris-HCl pH 7.5, 150 mM NaCl, and 2 mM TCEP pH 7.5). The eluted fractions containing OTUB1 protein were concentrated, divided into aliquots and stored at −80° C. freezer for further usage.
Quality control of the OTUB1 proteins was performed by SDS-PAGE, Nanodrop and mass spectrometry.
Mass Spectrometry-Based Analysis of OTUB1-Covalent Ligand Adducts
To screen the covalent ligands, recombinant OTUB1 protein (10 μM) was respectively incubated with DMSO, EN523 or seven novel ligands (2500 μM) in reaction buffer (50 mM Tris-HCl pH 7.5, 150 mM NaCl, and 0.5 mM TCEP pH 7.5) for 1 h at room temperature.
Then, the total 500 μL reaction solution was exchanged and concentrated to 50 μL 50 mM ammonium bicarbonate with a 10 kDa MWCO centrifugal filter unit (UFC901024, Millipore) and diluted in MS buffer (30% ACN, 0.2% FA) to a final concentration of […]. Mass spectrometry detection was performed by an Agilent LC/MSD Time-Of-Flight (TOF) mass spectrometer (Agilent Technologies) equipped with an electrospray ion source. The data was analyzed by TOF Protein Confirmation Software. All experiments were performed in duplicate.

T1 sequence (Q96FW1 whole entry): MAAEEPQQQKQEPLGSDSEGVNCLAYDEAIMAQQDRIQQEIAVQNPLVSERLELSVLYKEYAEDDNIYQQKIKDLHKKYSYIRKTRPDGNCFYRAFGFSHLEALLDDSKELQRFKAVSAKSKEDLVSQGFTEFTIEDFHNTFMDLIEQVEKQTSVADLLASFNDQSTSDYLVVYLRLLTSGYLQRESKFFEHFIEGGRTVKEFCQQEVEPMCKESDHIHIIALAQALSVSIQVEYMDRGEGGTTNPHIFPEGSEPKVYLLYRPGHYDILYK

| % of OTUB1 modified | Structure (SMILES) |
| --- | --- |
| 52% | C=CC(=O)N1CCN(c2ccc(C)s2)C(=O)C1 [XS154-91, 4-acryloyl-1-(5-methylthiophen-2-yl)piperazin-2-one] |
| 39% | C=CC(=O)N1CCN(c2ncc(C)s2)C(=O)C1 [XS154-148, 4-acryloyl-1-(5-methylthiazol-2-yl)piperazin-2-one] |
| <5% | C=CC(=O)N1CCN(c2cnc(C)s2)C(=O)C1 [XS154-184, 4-acryloyl-1-(2-methylthiazol-5-yl)piperazin-2-one] |
| <5% | C=CC(=O)N1CCN(c2cccc(C)n2)C(=O)C1 [XS159-90, 4-acryloyl-1-(6-methylpyridin-2-yl)piperazin-2-one] |
| <5% | C=CC(=O)N1CCN(c2cnc(C)n2C)C(=O)C1 [XS165-30, 4-acryloyl-1-(1,2-dimethyl-1H-imidazol-5-yl)piperazin-2-one] |
| 100% | Cc1cnc(N2CCN(C(=O)CCl)CC2=O)s1 [XS165-123, 4-(2-chloroacetyl)-1-(5-methylthiazol-2-yl)piperazin-2-one] |

The next lines start with the compound.

| Structure (SMILES) | % of OTUB1 modified |
| --- | --- |
| C=CC(=O)N1C2CCC1CN(c1cccc(C)c1)C2 [XS165-33, 1-(3-(m-tolyl)-3,8-diazabicyclo[3.2.1]octan-8-yl)prop-2-en-1-one] | 5% |
| C=CC(=O)N1CCC(=O)N(c2cccc(C)c2)CC1 [XS165-53, 1-acryloyl-4-(m-tolyl)-1,4-diazepan-5-one] | 5% |
| C=CC(=O)N1CC2CCC(C1)N2c1cccc(C)c1 [XS165-54, 1-(8-(m-tolyl)-3,8-diazabicyclo[3.2.1]octan-3-yl)prop-2-en-1-one] | 1% |
| Cc1cccc(N2CCN(C(=O)C#C[Si](C)(C)C)CC2=O)c1 [XS165-77, 1-(m-tolyl)-4-(3-(trimethylsilyl)propioloyl)piperazin-2-one] | 100% |
| Cc1cccc(N2CCN(C(=O)/C=C/CN(C)C)CC2=O)c1 [XS165-99, (E)-4-(4-(dimethylamino)but-2-enoyl)-1-(n-tolyl)piperazin-2-one] | 38% |
| Cc1ccc(N2CCN(C(=O)/C=C/CN(C)C)CC2=O)o1 [XS165-100, (E)-4-(4-(dimethylamino)but-2-enoyl)-1-(5-methylfuran-2-yl)piperazin-2-one] | 25% |
| Cc1ccc(N2CCN(C(=O)/C=C/CN(C)C)CC2=O)s1 [XS165-105, (E)-4-(4-(dimethylamino)but-2-enoyl)-1-(5-methylthiophen-2-yl)piperazin-2-one] | 70% |
| Cc1cccc(N2CCN(C(=O)/C=C/CN(C)C)CC2=O)n1 [XS165-109, (E)-4-(4-(dimethylamino)but-2-enoyl)-1-(6-methylpyridin-2-yl)piperazin-2-one] | 10% |
| Cc1ccc(N2CCN(C(=O)CCl)CC2=O)s1 [XS165-119, 4-(2-chloroacetyl)-1-(5-methylthiophen-2-yl)piperazin-2-one] | 25% |
| Cc1cccc(N2CCN(C(=O)CCl)CC2=O)n1 [XS165-120, 4-(2-chloroacetyl)-1-(6-methylpyridin-2-yl)piperazin-2-one] | 100% |
| Cc1cccc(N2CC3CCC(C2)N3C(=O)CCl)n1 [XS165-121, 2-chloro-1-(3-(6-methylpyridin-2-yl)-3,8-diazabicyclo[3.2.1]octan-8-yl)ethan-1-one] | 100% |
| Cc1ccc(N2CCN(C(=O)/C=C/CN3CCCC3)CC2=O)s1 [XS165-154, (E)-1-(5-methylthiophen-2-yl)-4-(4-(pyrrolidin-1-yl)but-2-enoyl)piperazin-2-one] | 70% |
| Cc1ccc(N2CCN(C(=O)/C=C/CN3CCOCC3)CC2=O)s1 [XS165-155, (E)-1-(5-methylthiophen-2-yl)-4-(4-morpholinobut-2-enoyl)piperazin-2-one] | <5% |
